The values that follow come from patent publication US10058534B2, “Benzothiophene derivatives and compositions thereof as selective estrogen receptor degraders” (NOVARTIS AG, priority 2013, dated 2018).

Counter-ions that a name gives are not always drawn. Like-named read-outs stand apart in the source and are kept apart here.

In assay [1] the target is ER (endogenous, MCF7 cells) (Homo sapiens (Human), UniProt P03372). Nature of the assay: ER transcription assay (MCF7 cells), ERE-luciferase reporter. It counts as cell-based. The note with it: read-out: MCF7 IC50. An excerpt: ER Transcription Assay (MCF7 Cells)
The ER transcription assay is a reporter assay that is based on the ability of ER to induce transcription from a luciferase reporter gene containing estrogen response elements (EREs) in the promoter/enhancer region. When the reporter gene is transfected in MCF7 cells (containing endogenous ER), transcription is reflected by the level of luciferase expression.
A day before transfection, cells are split into a T75 flask at a cell density of 300,000 cells/mL (10 mL total) and allowed to attach overnight in a humidified CO2 incubator at 37° C.
Approximately 20 ug DNA is mixed in OptiMEM (Invitrogen) to a total volume of 650 μL. Following incubation, the OptiMEM-DNA mixture is added to the OptiMEM-Lipofectin mix and incubated for 15 minutes at 37° C. The DNA-Lipofectin mixture is then added directly to the T75 flask and the flask is returned to the incubator.
Normally, DMSO (used as a vehicle) is included to achieve a final concentration of 0.1% when added to the cells. Transfected cells are trypsinized, resuspended in DMEM/F12/10% charcoal-stripped serum and added to the 96-well plate at 25,000 cells/well in 90 μL of media. The plate is then returned to the incubator for 24 hours.
After incubation with compounds for 24 hours, Firefly and Renilla luciferase activities are measured to determine ER transcriptional activity. Media is removed from 96-well plates by decanting and blotting on paper towels.
One second total read time after a one second delay.
One second total read time after one second delay. If Firefly luciferase signal is high, Renilla assay must be done an hour after the Firefly assay due to incomplete squelching of Firefly signal.
(§1) The column titled MCF7 IC50 reports the inflection point of the inhibition of transcription in MCF7 cells as described above. Percentage ERα remaining reports the remaining ERα protein measured at 10 μM concentration of the ligand as described above. The column ERα IC50 reports the inflection point of the degradation in response to the ligand concentration.
(Reporter assays use an easily measured gene product as a stand-in for the process of interest.)

The next assay addresses ERα (Homo sapiens (Human), UniProt P03372). Nature of the assay: ERα degradation (MCF7 cells), in-cell Western. The class given is cell-based. The note with it: for IC50: inflection point of the degradation in response to ligand concentration. As to the method: ERα Degradation (MCF7 Cells)
as §1

Setting [2] is: inflection point of the inhibition of transcription in MCF7 cells, 0.1 nM estradiol, 24 hours.
Where [3] appears, read: remaining ERα protein at 10 μM ligand, MCF7 cells, relative to DMSO control.

ER (endogenous, MCF7 cells), sequence (P03372 whole entry): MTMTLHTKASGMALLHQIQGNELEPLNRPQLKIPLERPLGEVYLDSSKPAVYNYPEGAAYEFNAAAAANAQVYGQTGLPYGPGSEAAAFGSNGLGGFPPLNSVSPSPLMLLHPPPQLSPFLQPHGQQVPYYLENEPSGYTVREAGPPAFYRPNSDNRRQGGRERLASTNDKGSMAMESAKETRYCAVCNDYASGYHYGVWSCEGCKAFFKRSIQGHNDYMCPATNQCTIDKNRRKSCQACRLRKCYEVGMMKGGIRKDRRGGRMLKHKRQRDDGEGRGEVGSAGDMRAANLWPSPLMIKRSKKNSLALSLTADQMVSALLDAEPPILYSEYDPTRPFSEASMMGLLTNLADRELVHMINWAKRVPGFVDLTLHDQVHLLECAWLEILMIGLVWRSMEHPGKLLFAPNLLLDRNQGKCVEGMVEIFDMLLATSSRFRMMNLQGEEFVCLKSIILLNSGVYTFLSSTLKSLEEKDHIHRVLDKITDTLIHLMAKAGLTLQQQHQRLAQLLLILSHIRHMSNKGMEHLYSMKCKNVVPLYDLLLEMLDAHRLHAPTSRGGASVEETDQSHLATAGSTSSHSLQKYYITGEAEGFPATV
ERα, sequence (P03372 whole entry): as above

The term IC50 denotes the point on the concentration scale where inhibition reaches its midpoint. Consider `[C-]#[N+]c1ccccc1-c1sc2cc(O)ccc2c1Oc1ccc(/C=C/C(=O)O)cc1` [Example 24, (E)-3-(4-((6-hydroxy-2-(2-isocyanophenyl)-benzo[b]thiophen-3-yl)oxy)phenyl)acrylic acid], for which the IC50 in assay [1] (setting [2]) was determined as 2580 nM; at ERα (MCF7 cells), 33 nM. In addition, on ERα (setting [3]), the “% ERα remaining” value is reported as 22%.

In the case of `COC(=O)/C=C/c1ccc(Oc2c(-c3ccc(O)c(C)c3)sc3cc(O)ccc23)cc1` [Example 41, (E)-methyl 3-(4-((6-hydroxy-2-(4-hydroxy-3-methylphenyl)-benzo[b]thiophen-3-yl)oxy)phenyl)acrylate], the half-maximal inhibitory concentration (IC50) in assay [1] (setting [2]) turned out to be 10000 nM. Besides, the “% ERα remaining” value at ERα (setting [3]) is reported as 32%.

As to `CCOC(=O)/C=C/c1ccc(Oc2c(-c3ccc(O)cc3)sc3cc(O)ccc23)cc1OC` [Example 43, (E)-ethyl 3-(4-((6-hydroxy-2-(4-hydroxyphenyl)benzo[b]thiophen-3-yl)oxy)-2-methoxyphenyl)acrylate], the IC50 in assay [1] (setting [2]) was 10000 nM. In addition, the “% ERα remaining” value at ERα (setting [3]) was 41%.

Consider `COC(=O)/C=C/c1ccc(Oc2c(-c3ccccc3)sc3cc(O)ccc23)cc1` [Example 44, (E)-methyl 3-(4-((6-hydroxy-2-phenylbenzo[b]thiophen-3-yl)oxy)phenyl)-acrylate], for which the IC50 in assay [1] (setting [2]) was 10000 nM. The “% ERα remaining” value on ERα (setting [3]) is 25%.

As for `COC(=O)/C=C/c1ccc(Oc2c(-c3ccccc3C(C)C)sc3cc(O)ccc23)cc1` [Example 45, (E)-methyl 3-(4-((6-hydroxy-2-(2-isopropylphenyl)benzo[b]thiophen-3-yl)oxy)phenyl)acrylate], in assay [1] (setting [2]), the IC50 stood at 23 nM. On ERα (setting [3]), the “% ERα remaining” value worked out at 30%.

In the case of `CNC(=O)/C=C/c1ccc(Oc2c(-c3ccc(O)c(F)c3)sc3cc(O)ccc23)cc1` [Example 69, (E)-3-(4-((2-(3-fluoro-4-hydroxyphenyl)-6-hydroxybenzo[b]thiophen-3-yl)oxy)phenyl)-N-methylacrylamide], the figures for the IC50 (in assay [1] (setting [2]); on ERα (MCF7 cells)) were 185 nM and 24 nM, respectively. Also, the “% ERα remaining” value on ERα (setting [3]) worked out at 26%.

For `CNC(=O)/C=C/c1ccc(Oc2c(-c3ccc(C(F)(F)F)cc3)sc3cc(O)ccc23)cc1` [Example 70, (E)-3-(4-((6-hydroxy-2-(4-(trifluoromethyl)phenyl)benzo[b]thiophen-3-yl)oxy)phenyl)-N-methylacrylamide], the IC50 in assay [1] (setting [2]) amounted to 41 nM; on ERα (MCF7 cells) it was 9 nM. Besides, the “% ERα remaining” value on ERα (setting [3]) stood at 32%.

`CNC(=O)/C=C/c1ccc(Oc2c(-c3ccc(O)cc3)sc3cc(O)ccc23)cn1` [Example 71, (E)-3-(5-((6-hydroxy-2-(4-hydroxyphenyl)benzo[b]thiophen-3-yl)oxy)pyridin-2-yl)-N-methylacrylamide]: in assay [1] (setting [2]), the IC50 was determined as 269 nM. For the same molecule, at ERα (setting [3]), the “% ERα remaining” value was found to be 41%.

In the case of `Oc1ccc(-c2sc3cc(O)ccc3c2Oc2ccc(/C=C/c3c[nH]cn3)cc2)cc1` [Example 72, (E)-3-(4-(2-(1H-imidazol-4-yl)vinyl)phenoxy)-2-(4-hydroxyphenyl)benzo[b]thiophen-6-ol], the IC50 was 53 nM in assay [1] (setting [2]) and 11 nM at ERα (MCF7 cells). In addition, the “% ERα remaining” value at ERα (setting [3]) was 39%.

For `Cn1cnc(/C=C/c2ccc(Oc3c(-c4ccc(O)cc4)sc4cc(O)ccc34)cc2)c1` [Example 73, (E)-2-(4-hydroxyphenyl)-3-(4-(2-(1-methyl-1H-imidazol-4-yl)vinyl)phenoxy)benzo[b]thiophen-6-ol], the results for the IC50 (in assay [1] (setting [2]); at ERα (MCF7 cells)) were 125 nM and 17 nM, respectively. At ERα (setting [3]), the “% ERα remaining” value came out at 47%.

Consider `CCCn1cnc(/C=C/c2ccc(Oc3c(-c4ccc(O)cc4)sc4cc(O)ccc34)cc2)c1` [Example 74, (E)-2-(4-hydroxyphenyl)-3-(4-(2-(1-propyl-1H-imidazol-4-yl)vinyl)phenoxy)benzo [b]thiophen-6-ol], for which the IC50 in assay [1] (setting [2]) worked out at 58 nM; against ERα (MCF7 cells), 10 nM. Besides, the “% ERα remaining” value at ERα (setting [3]) is 32%.

Take `CN(C)Cc1ccccc1-c1sc2cc(O)ccc2c1Oc1ccc(/C=C/C(=O)O)cc1` [Example 77, (E)-3-(4-((2-(2-((dimethylamino)methyl)phenyl)-6-hydroxybenzo[b]thiophen-3-yl)oxy)phenyl)acrylic acid]: the IC50 in assay [1] (setting [2]) turned out to be 44 nM; against ERα (MCF7 cells) it was 1.4 nM. For the same molecule, the “% ERα remaining” value on ERα (setting [3]) came to 15%.

Take `CC(=O)/C=C/c1ccc(Oc2c(-c3ccccc3C(C)C)sc3cc(O)ccc23)cc1` [Example 78, (E)-4-(4-((6-hydroxy-2-(2-isopropylphenyl)benzo[b]thiophen-3-yl)oxy)phenyl)but-3-en-2-one]: the half-inhibitory concentration (IC50) in assay [1] (setting [2]) stood at 6 nM. The “% ERα remaining” value on ERα (setting [3]) is given as 72%.

Turning to `O=C(O)/C=C/c1ccc(Oc2c(-c3ccccc3C(F)F)sc3cc(O)ccc23)cc1` [Example 79, (E)-3-(4-((2-(2-(difluoromethyl)phenyl)-6-hydroxybenzo [b]thiophen-3-yl)oxy)phenyl)acrylic acid], the IC50 was 52 nM in assay [1] (setting [2]) and 4.2 nM against ERα (MCF7 cells). On ERα (setting [3]), the “% ERα remaining” value is 17%.

With `CC(C)OC(=O)/C=C/c1ccc(Oc2c(-c3ccccc3C(C)C)sc3cc(O)ccc23)cc1` [Example 81, (E)-isopropyl 3-(4-((6-hydroxy-2-(2-isopropylphenyl)benzo[b]thiophen-3-yl)oxy)phenyl)acrylate], the IC50 in assay [1] (setting [2]) stood at 320 nM. Also, the “% ERα remaining” value on ERα (setting [3]) is listed as 29%.

On to `CC(=O)Oc1ccc2c(Oc3ccc(/C=C/C(=O)O)cc3)c(-c3ccccc3C(C)C)sc2c1` [Example 82, (E)-3-(4-((6-acetoxy-2-(2-isopropylphenyl)benzo[b]thiophen-3-yl)oxy)phenyl)acrylic acid], for which the half-inhibitory concentration (IC50) in assay [1] (setting [2]) came to 11 nM. Also, on ERα (setting [3]), the “% ERα remaining” value was found to be 21%.

For the molecule `COCCC(=O)Oc1ccc2c(Oc3ccc(/C=C/C(=O)O)cc3)c(-c3ccccc3C(C)C)sc2c1` [Example 83, (E)-3-(4-((2-(2-isopropylphenyl)-6-((3-methoxypropanoyl)oxy)benzo[b]thiophen-3-yl)oxy)phenyl)acrylic acid], the IC50 in assay [1] (setting [2]) was 15 nM. At ERα (setting [3]), the “% ERα remaining” value is 13%.

`CC(C)c1ccccc1-c1sc2cc(OCN3C(=O)c4ccccc4S3(=O)=O)ccc2c1Oc1ccc(/C=C/C(=O)O)cc1` [Example 84, (E)-3-(4-((6-((1,1-dioxido-3-oxobenzo [d]isothiazol-2(3H)-yl)methoxy)-2-(2-isopropylphenyl)benzo[b]thiophen-3-yl)oxy)phenyl)acrylic acid]: the IC50 in assay [1] (setting [2]) worked out at 44 nM. In addition, the “% ERα remaining” value on ERα (setting [3]) was 12%.

Consider `CC(C)c1ccccc1-c1sc2cc(OC(=O)[C@@H](N)C(C)C)ccc2c1Oc1ccc(/C=C/C(=O)O)cc1` [Example 85, (S,E)-3-(4-((6-((2-amino-3-methylbutanoyl)oxy)-2-(2-isopropylphenyl)benzo [b]thiophen-3-yl)oxy)phenyl)acrylic acid hydrochloride], for which the IC50 in assay [1] worked out at 7 nM. The “% ERα remaining” value at ERα is reported as 12%.

`CCC(C)c1ccccc1-c1sc2cc(O)ccc2c1Oc1ccc(/C=C/C(=O)O)cc1` (stereo not drawn) [Example 86, (E)-3-(4-((2-(2-(sec-butyl)phenyl)-6-hydroxybenzo[b]thiophen-3-yl)oxy)phenyl)acrylic acid]: the half-inhibitory concentration (IC50) in assay [1] (setting [2]) was determined as 7 nM; against ERα (MCF7 cells), 0.2 nM. For the same molecule, the “% ERα remaining” value on ERα (setting [3]) was found to be 12%.

Consider `O=C(O)/C=C/c1ccc(Oc2c(-c3ccccc3C3CCCC3)sc3cc(O)ccc23)cc1` [Example 87, (E)-3-(4-((2-(2-cyclopentylphenyl)-6-hydroxybenzo[b]thiophen-3-yl)oxy)phenyl)acrylic acid], for which the IC50 worked out at 14 nM in assay [1] (setting [2]) and 0.4 nM at ERα (MCF7 cells). Further, the “% ERα remaining” value at ERα (setting [3]) is on record as 15%.

Regarding `O=C(O)/C=C/c1ccc(Oc2c(-c3ccccc3C3CCC3)sc3cc(O)ccc23)cc1` [Example 89, (E)-3-(4-((2-(2-cyclobutylphenyl)-6-hydroxybenzo[b]thiophen-3-yl)oxy)phenyl)acrylic acid], the IC50 in assay [1] (setting [2]) amounted to 19 nM; against ERα (MCF7 cells) it was 0.5 nM. In addition, the “% ERα remaining” value at ERα (setting [3]) is given as 18%.

As for `O=C(O)/C=C/c1ccc(Oc2c(-c3cccc(F)c3C(F)(F)F)sc3cc(O)ccc23)cc1` [Example 90, (E)-3-(4-((2-(3-fluoro-2-(trifluoromethyl)phenyl)-6-hydroxybenzo[b]thiophen-3-yl)oxy)phenyl)acrylic acid], the IC50 came out at 26 nM in assay [1] (setting [2]) and 1.2 nM against ERα (MCF7 cells). At ERα (setting [3]), the “% ERα remaining” value stood at 15%.

Consider `COc1ccc(-c2sc3cc(O)ccc3c2Oc2ccc(/C=C/C(=O)O)cc2)c(C(F)(F)F)n1` [Example 91, (E)-3-(4-((6-hydroxy-2-(6-methoxy-2-(trifluoromethyl)pyridin-3-yl)benzo[b]thiophen-3-yl)oxy)phenyl)acrylic acid], for which the IC50 in assay [1] (setting [2]) amounted to 23 nM. The “% ERα remaining” value at ERα (setting [3]) was 16%.
